Source: the NIST ThermoML archive (doi:10.1016/j.fluid.2015.03.015)

Experiment: refractive index (other wavelength) (dimensionless); xn = mol fraction of the nth substance listed

CCCC(C)O (centres undefined) [pentan-2-ol] + CCCCCCCC[n+]1ccn(C)c1.F[B-](F)(F)F
Minimum deviation
Conditions | refractive index
294.64 K, Liquid mixture 2, Wavelength=623.8 nm, x2 = 0.168 | 1.4134
294.68 K, Liquid mixture 1, Wavelength=623.8 nm, x2 = 0.065 | 1.4084
294.68 K, Liquid mixture 2, Wavelength=623.8 nm, x2 = 0.166 | 1.4133
294.73 K, Liquid mixture 1, Wavelength=623.8 nm, x2 = 0.067 | 1.4085
294.73 K, Liquid mixture 2, Wavelength=623.8 nm, x2 = 0.162 | 1.4131
294.77 K, Liquid mixture 1, Wavelength=623.8 nm, x2 = 0.069 | 1.4086
294.77 K, Liquid mixture 2, Wavelength=623.8 nm, x2 = 0.157 | 1.4129
294.8 K, Liquid mixture 1, Wavelength=623.8 nm, x2 = 0.071 | 1.4087
294.8 K, Liquid mixture 2, Wavelength=623.8 nm, x2 = 0.153 | 1.4127
294.83 K, Liquid mixture 1, Wavelength=623.8 nm, x2 = 0.073 | 1.4088
294.83 K, Liquid mixture 2, Wavelength=623.8 nm, x2 = 0.149 | 1.4125
294.87 K, Liquid mixture 1, Wavelength=623.8 nm, x2 = 0.077 | 1.409
294.87 K, Liquid mixture 2, Wavelength=623.8 nm, x2 = 0.145 | 1.4123
294.88 K, Liquid mixture 1, Wavelength=623.8 nm, x2 = 0.079 | 1.4091
294.88 K, Liquid mixture 2, Wavelength=623.8 nm, x2 = 0.143 | 1.4122
294.89 K, Liquid mixture 1, Wavelength=623.8 nm, x2 = 0.083 | 1.4093
294.89 K, Liquid mixture 2, Wavelength=623.8 nm, x2 = 0.141 | 1.4121
294.9 K, Liquid mixture 1, Wavelength=623.8 nm, x2 = 0.085 | 1.4094
294.9 K, Liquid mixture 2, Wavelength=623.8 nm, x2 = 0.139 | 1.412
294.91 K, Liquid mixture 1, Wavelength=623.8 nm, x2 = 0.085 | 1.4094
294.91 K, Liquid mixture 1, Wavelength=623.8 nm, x2 = 0.087 | 1.4095
294.91 K, Liquid mixture 2, Wavelength=623.8 nm, x2 = 0.132 | 1.4117
294.91 K, Liquid mixture 2, Wavelength=623.8 nm, x2 = 0.134 | 1.4118
294.92 K, Liquid mixture 1, Wavelength=623.8 nm, x2 = 0.088 | 1.4095
294.92 K, Liquid mixture 1, Wavelength=623.8 nm, x2 = 0.09 | 1.4096
294.92 K, Liquid mixture 2, Wavelength=623.8 nm, x2 = 0.128 | 1.4115
294.92 K, Liquid mixture 2, Wavelength=623.8 nm, x2 = 0.13 | 1.4116
294.93 K, Liquid mixture 1, Wavelength=623.8 nm, x2 = 0.091 | 1.4097
294.93 K, Liquid mixture 1, Wavelength=623.8 nm, x2 = 0.093 | 1.4098
294.93 K, Liquid mixture 1, Wavelength=623.8 nm, x2 = 0.097 | 1.41
294.93 K, Liquid mixture 1, Wavelength=623.8 nm, x2 = 0.099 | 1.4101
294.93 K, Liquid mixture 2, Wavelength=623.8 nm, x2 = 0.118 | 1.411
294.93 K, Liquid mixture 2, Wavelength=623.8 nm, x2 = 0.122 | 1.4112
294.93 K, Liquid mixture 2, Wavelength=623.8 nm, x2 = 0.124 | 1.4113
294.93 K, Liquid mixture 2, Wavelength=623.8 nm, x2 = 0.126 | 1.4114

85 kPa, Liquid, Wavelength=632.8 nm, Minimum Deviation
Conditions | refractive index
294.98 K, x2 = 0.798 | 1.4299
294.98 K, x2 = 0.899 | 1.4314
295.13 K, x2 = 0.7 | 1.4281
295.53 K, x2 = 0.099 | 1.4101
295.95 K, x2 = 0.4 | 1.4213
296.02 K, x2 = 0.3 | 1.4182
296.02 K, x2 = 0.599 | 1.426
296.13 K, x2 = 0.5 | 1.4238
297.03 K, x2 = 0.798 | 1.4293
297.03 K, x2 = 0.899 | 1.4308
297.19 K, x2 = 0.7 | 1.4275
297.57 K, x2 = 0.3 | 1.4177
297.68 K, x2 = 0.5 | 1.4233
297.86 K, x2 = 0.099 | 1.4092
298.01 K, x2 = 0.4 | 1.4207
299.09 K, x2 = 0.3 | 1.4172
299.11 K, x2 = 0.798 | 1.4287
299.11 K, x2 = 0.899 | 1.4303
299.22 K, x2 = 0.2 | 1.4133
299.22 K, x2 = 0.7 | 1.4269
299.24 K, x2 = 0.5 | 1.4229
299.91 K, x2 = 0.099 | 1.4085
300.06 K, x2 = 0.4 | 1.4201
300.66 K, x2 = 0.3 | 1.4167
300.8 K, x2 = 0.2 | 1.4128
300.8 K, x2 = 0.5 | 1.4224
302 K, x2 = 0.099 | 1.4077
302.14 K, x2 = 0.4 | 1.4194
302.24 K, x2 = 0.3 | 1.4162
302.34 K, x2 = 0.5 | 1.4219
302.35 K, x2 = 0.2 | 1.4122
303.8 K, x2 = 0.3 | 1.4156
303.88 K, x2 = 0.2 | 1.4117
304.07 K, x2 = 0.099 | 1.4069
304.17 K, x2 = 0.4 | 1.4187
304.17 K, x2 = 0.5 | 1.4213
305.44 K, x2 = 0.2 | 1.4111
306.2 K, x2 = 0.099 | 1.4061
307.01 K, x2 = 0.2 | 1.4105
